According to patent US20180289620A1, “NANOPARTICLE FORMULATIONS AND USES THEREOF” (Abraxis BioScience, LLC, priority 2008, published 2018):
Like-named read-outs stand apart in the source and are kept apart here. Each block holds one molecule with its values, some of them ahead of it.

How the values were obtained:
[1] = tested on: MX-1 (human breast carcinoma) cells; assay: In vitro growth inhibition (cytotoxicity, CellTiter Blue Cell Viability Assay); assay type: cell-based; settings: cells exposed 72 hr
Protocol: A cytotoxicity assay was quantitated using the Promega CellTiter Blue Cell Viability Assay. Briefly, cells (5000 cells/well) were plated onto 96-well microtiter plates in RPMI 1640 medium supplemented with 10% FBS and incubated at 37° C. in a humidified 5% CO2 atmosphere. After 24 hr., cells were exposed to various concentrations of hydrophobic taxane derivative in DMSO and cultured for another 72 hr, 100 uL of media were removed and 20 uL of Promega CellTiter Blue reagent were added to each well and shaken to mix. After 4 hours of incubation at 37° C. in a humidified 5% CO2 atmosphere, the plates were read at 544 ex/620 em. The fluorescence produced is proportional to the number of viable cells. After plotting fluorescence produced against drug concentration, the IC50 was calculated as the […] of the resulting non-linear regression.

[2] = Log P of hydrophobic taxane derivatives; assay type: physicochemical; settings: method not stated
[3] = Pharmacokinetics of Nab-2 in monkeys; assay type: in vivo; settings: cynomolgus monkey; for AUCINF/D / Cmax/D / HL_Lambda_z / AUC(0-inf) / Cmax / Tmax / concentration at 0 hr / concentration at […] / concentration at 0.25 hr / concentration at 0.5 hr / concentration at 1 hr / concentration at 2 hr / concentration at 8 hr: label = analyte; for clearance / AUC(0-inf) / Cmax / Tmax / concentration at 0 hr / concentration at […] / concentration at 0.25 hr / concentration at 0.5 hr / concentration at 1 hr / concentration at 2 hr / concentration at 8 hr / Vd: male, blood; for concentration at […]: time 0.083 hr; for Vd: iv
Description: The day of the initial dose administration was designated Study Day 1, with subsequent days consecutively numbered. Days on study prior to the initial dose administration were consecutively numbered with the final day of acclimation referenced as day −1.
Three non-naïve, male cynomolgus monkeys, confirmed to have no prior exposure to albumin, were assigned to dose groups as specified in Table 6 shown below. Animals weighed 5.4-6.7 kg and were 4 to 7 years of age at study initiation.
All animals were dosed once weekly, on days 1, 8 and 15. Animals in Groups 3 and 4 were administered Nab-2 (lot: ABI139-2-83) at 5 and 10 mg/kg, respectively, and the Group 5 animal was administered Nab-2 at 20, 10 and 10 mg/kg (on days 1, 8 and 15, respectively) via 30 minute intravenous infusion. Clinical observations were performed twice daily and body weights were recorded weekly throughout the study.

Structure (SMILES): CC(=O)O[C@@]12CO[C@@H]1C[C@H](O)[C@@]1(C)C(=O)[C@H](O)C3=C(C)[C@@H](OC(=O)[C@H](OC(=O)c4ccccc4)[C@@H](NC(=O)OC(C)(C)C)c4ccccc4)C[C@@](O)([C@@H](OC(=O)c4ccccc4)C12)C3(C)C (stereo partly drawn) [Compound 1, 2′-Benzoyl-Docetaxel]
IC50 [1]: 38.4 µM
logP [2]: 6.67

Structure (SMILES): CCCCCC(=O)O[C@@H](C(=O)O[C@H]1C[C@@]2(O)[C@@H](OC(=O)c3ccccc3)C3[C@](C)(C(=O)[C@H](O)C(=C1C)C2(C)C)[C@@H](O)C[C@H]1OC[C@@]31OC(C)=O)[C@@H](NC(=O)OC(C)(C)C)c1ccccc1 (stereo partly drawn) [Compound 2, 2′-Hexanoyl Docetaxel]
IC50 [1]: 103 µM
logP [2]: 6.44
AUCINF/D ([3]; Nab-2 IV 5 mg/kg): 723 kg·ng·h/mL/mg
Cmax/D ([3]; Nab-2 IV 5 mg/kg): 215 kg·ng/mL/mg
HL_Lambda_z ([3]; Nab-2 IV 5 mg/kg): 3.6 h
AUCINF/D ([3]; Nab-2 IV 10 mg/kg): 535 kg·ng·h/mL/mg
Cmax/D ([3]; Nab-2 IV 10 mg/kg): 155 kg·ng/mL/mg
HL_Lambda_z ([3]; Nab-2 IV 10 mg/kg): 3.7 h
AUCINF/D ([3]; Nab-2 IV 20 mg/kg): 393 kg·ng·h/mL/mg
Cmax/D ([3]; Nab-2 IV 20 mg/kg): 131 kg·ng/mL/mg
HL_Lambda_z ([3]; Nab-2 IV 20 mg/kg): 3.0 h
clearance ([3]; Nab-2 IV 5 mg/kg): 23.1 mL/min/kg
AUC(0-inf) ([3]; Nab-2 IV 5 mg/kg): 3610 ng·h/mL
Cmax ([3]; Nab-2 IV 5 mg/kg): 1070 ng/mL
Tmax ([3]; Nab-2 IV 5 mg/kg): 4.98 min
concentration at 0 hr ([3]; Nab-2 IV 5 mg/kg): 0 ng/mL
concentration at […] ([3]; Nab-2 IV 5 mg/kg): 1070 ng/mL
concentration at 0.25 hr ([3]; Nab-2 IV 5 mg/kg): 940 ng/mL
concentration at 0.5 hr ([3]; Nab-2 IV 5 mg/kg): 774 ng/mL
concentration at 1 hr ([3]; Nab-2 IV 5 mg/kg): 534 ng/mL
concentration at 2 hr ([3]; Nab-2 IV 5 mg/kg): 422 ng/mL
concentration at 8 hr ([3]; Nab-2 IV 5 mg/kg): 136 ng/mL
clearance ([3]; Nab-2 IV 10 mg/kg): 31.2 mL/min/kg
AUC(0-inf) ([3]; Nab-2 IV 10 mg/kg): 5350 ng·h/mL
Cmax ([3]; Nab-2 IV 10 mg/kg): 1550 ng/mL
Tmax ([3]; Nab-2 IV 10 mg/kg): 4.98 min
concentration at 0 hr ([3]; Nab-2 IV 10 mg/kg): 0 ng/mL
concentration at […] ([3]; Nab-2 IV 10 mg/kg): 1550 ng/mL
concentration at 0.25 hr ([3]; Nab-2 IV 10 mg/kg): 1300 ng/mL
concentration at 0.5 hr ([3]; Nab-2 IV 10 mg/kg): 936 ng/mL
concentration at 1 hr ([3]; Nab-2 IV 10 mg/kg): 734 ng/mL
concentration at 2 hr ([3]; Nab-2 IV 10 mg/kg): 657 ng/mL
concentration at 8 hr ([3]; Nab-2 IV 10 mg/kg): 202 ng/mL
clearance ([3]; Nab-2 IV 20 mg/kg): 42.4 mL/min/kg
AUC(0-inf) ([3]; Nab-2 IV 20 mg/kg): 7860 ng·h/mL
Cmax ([3]; Nab-2 IV 20 mg/kg): 2620 ng/mL
Tmax ([3]; Nab-2 IV 20 mg/kg): 15 min
concentration at 0 hr ([3]; Nab-2 IV 20 mg/kg): 0 ng/mL
concentration at […] ([3]; Nab-2 IV 20 mg/kg): 2390 ng/mL
concentration at 0.25 hr ([3]; Nab-2 IV 20 mg/kg): 2620 ng/mL
concentration at 0.5 hr ([3]; Nab-2 IV 20 mg/kg): 1820 ng/mL
concentration at 1 hr ([3]; Nab-2 IV 20 mg/kg): 1370 ng/mL
concentration at 2 hr ([3]; Nab-2 IV 20 mg/kg): 958 ng/mL
concentration at 8 hr ([3]; Nab-2 IV 20 mg/kg): 264 ng/mL
Vd ([3]; 5 mg/kg, Nab-2 IV 5 mg/kg, read-out: Vss): 5.84 L/kg
Vd ([3]; 5 mg/kg, Nab-2 IV 5 mg/kg, read-out: Vz): 7.18 L/kg
Vd ([3]; 10 mg/kg, Nab-2 IV 10 mg/kg, read-out: Vss): 8.12 L/kg
Vd ([3]; 10 mg/kg, Nab-2 IV 10 mg/kg, read-out: Vz): 9.93 L/kg
Vd ([3]; 20 mg/kg, Nab-2 IV 20 mg/kg, read-out: Vss): 8.74 L/kg
Vd ([3]; 20 mg/kg, Nab-2 IV 20 mg/kg, read-out: Vz): 11.2 L/kg
Vd ([3]; Nab-2 IV 5-20 mg/kg, read-out: volume of distribution Vz): 7 to 11 L/kg

Structure (SMILES): CCCCCCCCCC(=O)O[C@@H](C(=O)O[C@H]1C[C@@]2(O)[C@@H](OC(=O)c3ccccc3)C3[C@](C)(C(=O)[C@H](O)C(=C1C)C2(C)C)[C@@H](O)C[C@H]1OC[C@@]31OC(C)=O)[C@@H](NC(=O)OC(C)(C)C)c1ccccc1 (stereo partly drawn) [Compound 3, 2′-Decanoyl-Docetaxel]
IC50 [1]: 8.8 µM

Structure (SMILES): CCCCC(=O)O[C@@H](C(=O)O[C@H]1C[C@@]2(O)[C@@H](OC(=O)c3ccccc3)C3[C@](C)(C(=O)[C@H](O)C(=C1C)C2(C)C)[C@@H](O)C[C@H]1OC[C@@]31OC(C)=O)[C@@H](NC(=O)OC(C)(C)C)c1ccccc1 (stereo partly drawn) [Compound 4, 2′-Valeryl-Docetaxel]
IC50 [1]: 211 µM
logP [2]: 6.37

logP [2]: 5.31
Structure (SMILES): CCC(=O)O[C@@H](C(=O)O[C@H]1C[C@@]2(O)[C@@H](OC(=O)c3ccccc3)C3[C@](C)(C(=O)[C@H](O)C(=C1C)C2(C)C)[C@@H](O)C[C@H]1OC[C@@]31OC(C)=O)[C@@H](NC(=O)OC(C)(C)C)c1ccccc1 (stereo partly drawn) [Compound 5, 2′-Propionyl-Docetaxel]
IC50 [1]: 209 µM

Structure (SMILES): CC(=O)O[C@@]12CO[C@@H]1C[C@H](O)[C@@]1(C)C(=O)[C@H](O)C3=C(C)[C@@H](OC(=O)[C@H](O)[C@@H](NC(=O)OC(C)(C)C)c4ccccc4)C[C@@](O)([C@@H](OC(=O)c4ccccc4)C12)C3(C)C (stereo partly drawn) [Docetaxel, docetaxel, reference compound]
Log P [2]: 4.20
AUCINF/D ([3]; Nab-2 IV 5 mg/kg): 35 kg·ng·h/mL/mg
Cmax/D ([3]; Nab-2 IV 5 mg/kg): 8 kg·ng/mL/mg
HL_Lambda_z ([3]; Nab-2 IV 5 mg/kg): 1.4 h
AUCINF/D ([3]; Nab-2 IV 10 mg/kg): 31 kg·ng·h/mL/mg
Cmax/D ([3]; Nab-2 IV 10 mg/kg): 10 kg·ng/mL/mg
HL_Lambda_z ([3]; Nab-2 IV 10 mg/kg): 3.2 h
AUCINF/D ([3]; Nab-2 IV 20 mg/kg): 20 kg·ng·h/mL/mg
Cmax/D ([3]; Nab-2 IV 20 mg/kg): 19 kg·ng/mL/mg
HL_Lambda_z ([3]; Nab-2 IV 20 mg/kg): 1.4 h
AUC(0-inf) ([3]; Nab-2 IV 5 mg/kg): 175 ng·h/mL
Cmax ([3]; Nab-2 IV 5 mg/kg): 41 ng/mL
Tmax ([3]; Nab-2 IV 5 mg/kg): 15 min
concentration at 0 hr ([3]; Nab-2 IV 5 mg/kg): 0 ng/mL
concentration at […] ([3]; Nab-2 IV 5 mg/kg): 36.7 ng/mL
concentration at 0.25 hr ([3]; Nab-2 IV 5 mg/kg): 40.7 ng/mL
concentration at 0.5 hr ([3]; Nab-2 IV 5 mg/kg): 35.5 ng/mL
concentration at 1 hr ([3]; Nab-2 IV 5 mg/kg): 32.1 ng/mL
concentration at 2 hr ([3]; Nab-2 IV 5 mg/kg): 34.1 ng/mL
concentration at 8 hr ([3]; Nab-2 IV 5 mg/kg): 1.15 ng/mL
AUC(0-inf) ([3]; Nab-2 IV 10 mg/kg): 314 ng·h/mL
Cmax ([3]; Nab-2 IV 10 mg/kg): 99 ng/mL
concentration at 0 hr ([3]; Nab-2 IV 10 mg/kg): 0 ng/mL
concentration at […] ([3]; Nab-2 IV 10 mg/kg): 99.4 ng/mL
concentration at 0.25 hr ([3]; Nab-2 IV 10 mg/kg): 70.1 ng/mL
concentration at 0.5 hr ([3]; Nab-2 IV 10 mg/kg): 63.4 ng/mL
concentration at 1 hr ([3]; Nab-2 IV 10 mg/kg): 47.5 ng/mL
concentration at 2 hr ([3]; Nab-2 IV 10 mg/kg): 44.2 ng/mL
concentration at 8 hr ([3]; Nab-2 IV 10 mg/kg): 0 ng/mL
AUC(0-inf) ([3]; Nab-2 IV 20 mg/kg): 394 ng·h/mL
Cmax ([3]; Nab-2 IV 20 mg/kg): 382 ng/mL
concentration at 0 hr ([3]; Nab-2 IV 20 mg/kg): 0 ng/mL
concentration at […] ([3]; Nab-2 IV 20 mg/kg): 382 ng/mL
concentration at 0.25 hr ([3]; Nab-2 IV 20 mg/kg): 232 ng/mL
concentration at 0.5 hr ([3]; Nab-2 IV 20 mg/kg): 157 ng/mL
concentration at 1 hr ([3]; Nab-2 IV 20 mg/kg): 90.5 ng/mL
concentration at 2 hr ([3]; Nab-2 IV 20 mg/kg): 69.2 ng/mL
concentration at 8 hr ([3]; Nab-2 IV 20 mg/kg): 0 ng/mL
